# Measured values taken from patent publication US7485642B2, “Method for treating septic shock” (Orion Corporation, priority 2000, dated 2009).
# System: porcine model of endotoxin shock
# Test: porcine model of endotoxin shock
# Format: in vivo, landrace pigs
# Procedure: 20 kg landrace pigs were anesthetized and catheterized. After baseline measurements 8 pigs received 200 μg/kg levosimendan as a 10 minute bolus followed by an infusion of 200 μg/kg/hour. 9 animals served as controls.
# In the second phase of the experiment the animals were given an infusion of endotoxin (from E. Coli bacteria) 30 minutes after the start of the bolus dose of levosimendan. The endotoxin infusion was maintained for 3 hours and the levosimendan infusion was maintained throughout the experiment until 5 hours after onset of endoxemia. Comparison between the two groups was made with ANOVA.
# The changes in the cardiac index, splanchnic (portal) blood flow index, portal venous blood lactate and pulmonary vascular resistance are shown in FIGS. 1-4. In the Figures, (−0.5 h) means the start of levosimendan bolus and (0 h) the start of endotoxin infusion.
# [1] = porcine model of endotoxin shock, 200 μg/kg 10 minute bolus followed by infusion of 200 μg/kg/hour, E. Coli endotoxin infusion 3 hours
compound,measurement,setting,value
"CC1CC(=O)NN=C1c1ccc(NN=C(C#N)C#N)cc1 (single isomer, unassigned; (-)) [levosimendan, (−)-[[4-(1,4,5,6-tetrahydro-4-methyl-6-oxo-3-pyridazinyl)phenyl]hydrazono]propanedinitrile]",survival,"8 levosimendan treated pigs, until 5 hours after onset of endotoxemia",All levosimendan treated animals survived
same,endotoxin-induced decreases in cardiac output,[1],counteracts
same,endotoxin-induced splanchnic hyperperfusion,[1],counteracts endotoxin-induced splanchnic hyperperfusion
same,"endotoxin-induced circulatory disorders (cardiac index, portal blood flow index, portal venous blood lactate, pulmonary vascular resistance; FIGS. 1-4)","vs control, ANOVA, until 5 hours after onset of endotoxemia",can significantly counteract endotoxin-induced circulatory disorders
